From patent EP0007995A1, “Chemotherapeutic preparations and their manufacture” (F. HOFFMANN-LA ROCHE & CO. Aktiengesellschaft, priority 1978, dated 1980)

Assays:
[1] = system: E. coli 1346; test: In vivo activity in infected mouse; conditions: Escherichia coli, po; Maus, p.o., gegen E. coli 1346; read-out: CD50 p.o.
[2] = Acute toxicity; conditions: mouse, in vivo
[3] = system: Pseudomonas aeruginosa BA; test: In vivo activity in infected mouse; conditions: po; Maus, p.o., gegen Pseudomonas aeruginosa BA; read-out: CD50 p.o.
[4] = system: Streptococcus pyogenes β15; test: In vivo activity in infected mouse; conditions: po; Maus, p.o., gegen Streptococcus pyogenes β15; read-out: CD50 p.o.
[5] = system: Proteus mirabilis; test: In vivo activity in infected mouse; conditions: po; Maus, p.o., gegen Proteus mirabilis; read-out: CD50 p.o.
[6] = system: Salmonella typhimurium; test: In vivo activity in infected mouse; conditions: Salmonella enterica, po; Maus, p.o., gegen Salmonella typhimurium; read-out: CD50 p.o.
[7] = in vivo
[8] = in vivo; conditions: mouse
[9] = system: menschlichen Lymphozyten; conditions: human
[10] = Water solubility; assay type: physicochemical
Description: Wie gefunden wurde, lassen sich mit Fluoramphenicol wässrige Lösungen in Konzentrationen bis zu 0,5 g/10 ml herstellen. Solche Lösungen stellen eine wertvolle parenterale Applikationsform, insbesondere für die intravenöse Injektion und -Infusion dar. Dank seiner guten Wasserlöslichkeit eignet sich Fluoramphenicol auch für die Herstellung von ophthalmologischen Präparaten mit besonders guter Verträglichkeit, insbesondere für die Herstellung von Augentropfen.

[11] = J. Pharm. Pharmacol. 3 [1951], 143; cited from earlier work
[12] = system: KB-Zellen

SMILES	ED50 [1]	LD50 ([2]; ip)	LD50 ([2]; po)	ED50 [3]	ED50 [4]	ED50 [5]	ED50 [6]	metabolic stability (concluded from urine recovery) [7]	Serumkonzentrationen ([7]; po)	Urinkonzentrationen, mal höher als Chloramphenicol ([7]; po)	mal langsamer ausgeschieden als Chloramphenicol ([7]; po)	totale Urin-recovery an aktivem Fluoramphenicol, mal höher als an aktivem Chloramphenicol ([7]; po)	LD50 ([8]; ip)	LD50 ([8]; po)	Cytotoxizität gegenüber menschlichen Lymphozyten, mal weniger toxisch als Chloramphenicol [9]	wässrige Lösungen in Konzentrationen ([10]; aqueous solution)	Wasserlöslichkeit ([10]; result in words)	biological activity [11]	Cytotoxizität gegenüber KB-Zellen, mal weniger toxisch als Chloramphenicol [12]
O=C(N[C@H](CO)[C@H](O)c1ccc([N+](=O)[O-])cc1)C(Cl)Cl [Chloramphenicol, reference compound]	6.6 mg/kg	1000 to 1500 mg/kg	2000 to 3000 mg/kg	93 mg/kg	22 mg/kg	5.8 mg/kg	18 mg/kg												
O=C(N[C@H](CO)[C@H](O)c1ccc([N+](=O)[O-])cc1)C(F)F [Fluoramphenicol, D-threo-1-(p-Nitrophenyl)-2-difluor-acetamino-l,3-propandiol]	6.6 mg/kg			33 mg/kg	11 mg/kg	5.2 mg/kg	19 mg/kg	metabolisch beständig	höhere Serumkonzentrationen als Chloramphenicol	ca. lO	2-3 mal	ca. lO	2000 to 3000 mg/kg	3000 to 4000 mg/kg	~3 mal	≤ 0,5 g/10 ml	unerwartet hohe Wasserlöslichkeit	biologisch unwirksam	3-5 mal
